Patent US20240182465A1 (GENFLEET THERAPEUTICS (SHANGHAI) INC., priority 2021, published 2024)
Counter-ions that a name gives are not always drawn.

Legend:
HPK1 [1] = target: T1, HPK1 (Homo sapiens, UniProt Q92918); assay: HPK1 kinase activity assay (ADP-Glo); settings: HPK1 Kinase activity IC50 (nM), 1 nM HPK1, 10 μM ATP, 0.1 μg/μL MBP
T1 sequence (Q92918 1-346 limits assumed): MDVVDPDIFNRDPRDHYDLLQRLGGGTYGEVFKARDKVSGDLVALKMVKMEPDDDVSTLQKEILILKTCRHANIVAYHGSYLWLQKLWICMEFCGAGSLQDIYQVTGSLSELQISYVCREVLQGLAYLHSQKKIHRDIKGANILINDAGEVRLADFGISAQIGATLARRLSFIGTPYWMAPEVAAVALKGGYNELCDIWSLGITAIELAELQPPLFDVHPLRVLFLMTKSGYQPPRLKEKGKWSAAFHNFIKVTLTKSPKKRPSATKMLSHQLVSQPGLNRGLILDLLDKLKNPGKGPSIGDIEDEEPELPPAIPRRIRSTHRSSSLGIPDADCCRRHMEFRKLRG

HPK1 [2] = target: HPK1 (Homo sapiens, UniProt Q92918); assay: SLP76 phosphorylation assay (intracellular HPK1 inhibitory activity, p-SLP76 Ser376 sandwich ELISA); settings: p-SLP76 IC50(nM), Jurkat, Clone E6-1 cells; 1 h compound pre-incubation, anti-CD3 beads stimulation 20 min; SLP76 phosphorylation at S376
Target sequence in this assay (Q92918 whole entry): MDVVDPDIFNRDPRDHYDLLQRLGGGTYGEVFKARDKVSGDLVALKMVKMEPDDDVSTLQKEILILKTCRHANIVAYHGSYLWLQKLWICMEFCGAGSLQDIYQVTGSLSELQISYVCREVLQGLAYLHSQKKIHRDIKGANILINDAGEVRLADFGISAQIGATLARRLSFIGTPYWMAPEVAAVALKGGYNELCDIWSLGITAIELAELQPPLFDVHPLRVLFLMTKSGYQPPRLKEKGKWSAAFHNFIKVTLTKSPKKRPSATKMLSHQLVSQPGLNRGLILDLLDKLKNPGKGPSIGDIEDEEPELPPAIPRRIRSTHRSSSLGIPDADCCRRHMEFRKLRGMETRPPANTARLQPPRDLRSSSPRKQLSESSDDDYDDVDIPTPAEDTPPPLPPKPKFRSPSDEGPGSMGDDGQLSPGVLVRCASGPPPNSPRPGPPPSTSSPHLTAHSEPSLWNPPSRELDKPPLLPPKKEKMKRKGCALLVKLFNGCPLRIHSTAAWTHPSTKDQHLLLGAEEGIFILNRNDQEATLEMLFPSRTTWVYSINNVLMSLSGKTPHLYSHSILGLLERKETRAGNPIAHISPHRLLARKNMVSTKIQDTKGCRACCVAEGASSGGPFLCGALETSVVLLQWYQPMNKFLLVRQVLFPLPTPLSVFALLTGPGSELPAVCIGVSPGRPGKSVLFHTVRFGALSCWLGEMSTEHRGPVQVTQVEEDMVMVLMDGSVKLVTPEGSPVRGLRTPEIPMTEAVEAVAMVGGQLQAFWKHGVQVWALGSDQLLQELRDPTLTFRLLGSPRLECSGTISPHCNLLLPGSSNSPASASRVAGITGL

Row | IC50 (HPK1 [1]) [nM] | IC50 (HPK1 [2]) [nM] | SMILES
1 | 0.52 | 95.3 | Cc1c[nH]c2ncc(-c3cc4c(c([C@@H]5CCCN5)c3)CCN(C(=O)[C@H]3CCOC3)C4)cc12 [Compound Z294, (7-(3-methyl-1H-pyrrolo[2,3-b]pyridin-5-yl)-5-((S)-pyrrolidin-2-yl)-3,4-dihydroisoquinolin-2(1H)-yl) ((S)-tetrahydrofuran-3-yl)methanone]
2 | 3.3 | 668 | CNCc1cc(-c2cnc3[nH]cc(C)c3c2)cc2c1COCC2 [Compound Z298, N-methyl-1-(6-(3-methyl-1H-pyrrolo[2,3-b]pyridin-5-yl)isochroman-8-yl)methanamine]
3 | 0.61 | 254 | Cc1c[nH]c2ncc(-c3cc4c(c([C@@H]5CCCN5)c3)CCN(C(=O)C(C)(C)O)C4)cc12 [Compound Z301, (S)-2-hydroxy-2-methyl-1-(7-(3-methyl-11H-pyrrolo[2,3-b]pyridin-5-yl)-5-(pyrrolidin-2-yl)-3,4-dihydroisoquinolin-2(1H)-yl)propan-1-one]
4 | 0.93 | 125 | Cc1c[nH]c2ncc(-c3cc4c(c([C@@H]5CCCN5)c3)CCN(C(=O)C3CC3)C4)cc12 [Compound Z302, (S)-cyclopropyl (7-(3-methyl-1H-pyrrolo[2,3-b]pyridin-5-yl)-5-(pyrrolidin-2-yl)-3,4-dihydroisoquinolin-2(1H)-yl)methanone]
5 | 0.64 | 170 | Cc1c[nH]c2ncc(-c3cc4c(c([C@@H]5CCCN5)c3)CN(C(=O)c3cnn(CC(F)F)c3)CC4)cc12 [Compound Z306, (S)-[1-(2,2-difluoroethyl)pyrazol-4-yl]-[6-(3-methyl-1H-pyrrolo[2,3-b]pyridin-5-yl)-8-[pyrrolidin-2-yl]-3,4-dihydro-1H-isoquinolin-2-yl]methanone]
6 | 0.53 | 277 | Cc1c[nH]c2ncc(-c3cc4c(c([C@@H]5CCCN5)c3)CCN(c3ccnn3C)C4)cc12 [Compound Z307, (S)-2-(1-methyl-1H-pyrazol-5-yl)-7-(3-methyl-1H-pyrrolo[2,3-b]pyridin-5-yl)-5-(pyrrolidin-2-yl)-1,2,3,4-tetrahydroisoquinoline]
7 | 2.06 | 441 | Cc1c[nH]c2ncc(-c3cc4c(c([C@@H]5CCCN5)c3)CCN(CC(F)(F)F)C4)cc12 [Compound Z308, (S)-7-(3-methyl-1H-pyrrolo[2,3-b]pyridin-5-yl)-5-(pyrrolidin-2-yl)-2-(2,2,2-trifluoroethyl)-1,2,3,4-tetrahydroisoquinoline]
8 | 1.79 | 567 | Cc1c[nH]c2ncc(-c3cc4c(c([C@@H]5CCCN5)c3)CCN(C(=O)C3(O)CC3)C4)cc12 [Compound Z310, (S)-(1-hydroxycyclopropyl)(7-(3-methyl-1H-pyrrolo[2,3-b]pyridin-5-yl)-5-(pyrrolidin-2-yl)-3,4-dihydroisoquinolin-2(1H)-yl)methanone]
9 | 0.56 | 146 | Cc1c[nH]c2ncc(-c3cc4c(c([C@@H]5CCCN5)c3)CCN(C(=O)CC3CCOCC3)C4)cc12 [Compound Z311, 1-[7-(3-methyl-1H-pyrrolo[2,3-b]pyridin-5-yl)-5-[(2S)-tetrahydro-1H-pyrrol-2-yl]-1,2,3,4-tetrahydroisoquinolin-2-yl]-2-(3,4,5,6-tetrahydro-2H-pyran-4-yl)ethan-1-one]
10 | 0.47 | 88.4 | Cc1c[nH]c2ncc(-c3cc4c(c([C@@H]5CCCN5)c3)CCN(C(=O)C3CCOCC3)C4)cc12 [Compound Z312, (S)-1-[7-(3-methyl-1H-pyrrolo[2,3-b]pyridin-5-yl)-5-[pyrrolidin-2-yl]-3,4-dihydroisoquinolin-2(1H)-yl](tetrahydro-2H-pyran-4-yl)methanone]
11 | 0.29 | 225 | Cc1c[nH]c2ncc(-c3cc4c(c([C@@H]5CCCN5)c3)CN(c3ccncn3)CC4)cc12 [Compound Z315, (S)-6-(3-methyl-1H-pyrrolo[2,3-b]pyridin-5-yl)-2-(pyrimidin-4-yl)-8-(pyrrolidin-2-yl)-1,2,3,4-tetrahydroisoquinoline]
12 | 0.74 | 314 | Cc1c[nH]c2ncc(-c3cc4c(c([C@@H]5COCCN5)c3)CN(S(C)(=O)=O)CC4)cc12 [Compound Z316, 2-(methyldioxo-λ6-sulfanyl)-6-(3-methyl-1H-pyrrolo[2,3-b]pyridin-5-yl)-8-[(3R)-1,4-oxazecyclohex-3-yl]-1,2,3,4-tetrahydroisoquinoline]
13 | 0.88 | 200 | Cc1c[nH]c2ncc(-c3cc4c(c([C@@H]5COCCN5)c3)CN(C(=O)[C@@](C)(O)C(F)(F)F)CC4)cc12 [Compound Z317, (R)-3,3,3-trifluoro-2-hydroxy-2-methyl-1-[6-(3-methyl-1H-pyrrolo[2,3-b]pyridin-5-yl)-8-[(R)-morpholin-3-yl]-3,4-dihydroisoquinolin-2(1H)-yl]propan-1-one]
14 | 0.28 | 111 | Cc1c[nH]c2ncc(-c3cc4c(c([C@@H]5CCCN5)c3)CN(C(=O)c3cnn(C5CC5)c3)CC4)cc12 [Compound Z319, (S)-(1-cyclopropyl-1H-pyrazol-4-yl)(6-(3-methyl-1H-pyrrolo[2,3-b]pyridin-5-yl)-8-(pyrrolidin-2-yl)-3,4-dihydroisoquinolin-2(1H)-yl)methanone]
15 | 0.73 | 121 | Cc1cc(N2CCc3cc(-c4cnc5[nH]cc(C)c5c4)cc([C@@H]4CCCN4)c3C2)ccn1 [Compound Z320, (S)-6-(3-methyl-1H-pyrrolo[2,3-b]pyridin-5-yl)-2-(2-methylpyridin-4-yl)-8-(pyrrolidin-2-yl)-1,2,3,4-tetrahydroisoquinoline formate]
16 | 0.49 | 204 | c1cn2ccc(-c3c[nH]c4ncc(-c5cc6c(c([C@@H]7CCCN7)c5)COCC6)cc34)cc2n1 [Compound Z323]
17 | 0.33 | 150 | Cc1c[nH]c2ncc(-c3cc4c(c([C@@H]5CCCN5)c3)CN(C(=O)c3ccnc(C(C)(C)O)c3)CC4)cc12 [Compound Z327, (S)-(2-(2-hydroxypropan-2-yl)pyridin-4-yl)(6-(3-methyl-1H-pyrrolo[2,3-b]pyridin-5-yl)-8-(pyrrolidin-2-yl)-3,4-dihydroisoquinolin-2(1H)-yl)methanone]
18 | 0.33 | 90.7 | Cc1ncc(C(=O)N2CCc3cc(-c4cnc5[nH]cc(C)c5c4)cc([C@@H]4CCCN4)c3C2)cn1 [Compound Z328, (S)-[6-(3-methyl-1H-pyrrolo[2,3-b]pyridin-5-yl)-8-[pyrrolidin-2-yl]-3,4-dihydroisoquinolin-2(1H)-yl](2-methylpyrimidin-5-yl)methanone]
19 | 0.7 | 174 | Cc1cc(C(=O)N2CCc3cc(-c4cnc5[nH]cc(C)c5c4)cc([C@@H]4CCCN4)c3C2)ncn1 [Compound Z331, (S)-(6-(3-methyl-1H-pyrrolo[2,3-b]pyridin-5-yl)-8-(pyrrolidin-2-yl)-3,4-dihydroisoquinolin-2(1H)-yl) (6-methylpyrimidin-4-yl)methanone]
20 | 0.25 | 170 | CCn1cc(C(=O)N2CCc3cc(-c4cnc5[nH]cc(C)c5c4)cc([C@@H]4CCCN4)c3C2)cn1 [Compound Z335, (S)-(1-ethyl-1H-pyrazol-4-yl)-[6-(3-methyl-1H-pyrrolo[2,3-b]pyridin-5-yl)-8-[pyrrolidin-2-yl]-3,4-dihydroisoquinolin-2(1H)-yl]methanone]

Row | SMILES | IC50 (HPK1 [1]) [nM] | IC50 (HPK1 [2]) [nM]
21 | Cc1c[nH]c2ncc(-c3cc4c(c([C@@H]5CCCN5)c3)CCN(C(=O)[C@@H]3CCOC3)C4)cc12 [Compound Z293, (7-(3-methyl-1H-pyrrolo[2,3-b]pyridin-5-yl)-5-((S)-pyrrolidin-2-yl)-3,4-dihydroisoquinolin-2(1H)-yl) ((R)-tetrahydrofuran-3-yl)methanone] | 0.47 | 113
22 | CCNC(=O)N1CCc2c(cc(-c3cnc4[nH]cc(C)c4c3)cc2[C@@H]2CCCN2)C1 [Compound Z295, (S)—N-ethyl-7-(3-methyl-1H-pyrrolo[2,3-h]pyridin-5-yl)-5-(pyrrolidin-2-yl)-3,4-dihydroisoquinoline-2(1H)-carboxamide] | 1.22 | 214
23 | Cc1c[nH]c2ncc(-c3cc4c(c(C5COCCN5)c3)CN(C(=O)[C@](C)(O)C(F)(F)F)CC4)cc12 (stereo partly drawn) [Compound Z296, (2S)-3,3,3-trifluoro-2-hydroxy-2-methyl-1-(6-(3-methyl-1H-pyrrolo[2,3-b]pyridin-5-yl)-8-(morpholin-3-yl)-3,4-dihydroisoquinolin-2(1H)-yl)propan-1-one] | 0.86 | 223
24 | Cc1c[nH]c2ncc(-c3cc4c(c([C@@H]5CCCN5)c3)CCN(C(=O)C(C)(C)C)C4)cc12 [Compound Z300, (S)-2,2-dimethyl-1-(7-(3-methyl-1H-pyrrolo[2,3-b]pyridin-5-yl)-5-(pyrrolidin-2-yl)-3,4-dihydroisoquinolin-2(1H)-yl)propan-1-one] | 0.64 | 274
25 | COC(=O)N1CCc2c(cc(-c3cnc4[nH]cc(C)c4c3)cc2[C@@H]2CCCN2)C1 [Compound Z305, methyl (S)-7-(3-methyl-1H-pyrrolo[2,3-b]pyridin-5-yl)-5-(pyrrolidin-2-yl)-3,4-dihydroisoquinoline-2(1H)-carboxylate] | 0.84 | 297
